Where “and” joins values, the source holds several entries; their conditions need not be identical. Equal values may be shown once.
Tests used:
[1] = test system: P. aeruginosa; assay: MIC in lysogeny broth (LB) at pH 4; format: cell-based
Procedure: (§1) The MICs are also determined using lysogeny broth (LB) at pH 4 as the growth medium. Under these conditions, Nu-8 is active against E. coli and P. aeruginosa with MICs of 54 and 27 mg/mL, respectively.

[2] = test system: E. coli; assay: MIC in lysogeny broth (LB) at pH 4; format: cell-based
Procedure: as §1

[3] = test system: Helicobacter pylori SS1 (CagA+, VacA+); assay: Helicobacter pylori stomach infection model in mice, oral treatment; format: in vivo, C57/BL6 mice
From the text: The mouse strain used in this study is C57/BL6 ranging from 5-6 weeks in age and 18-22 grams in weight. Mice are housed five to a cage with free access to food and water in accordance with NIH guidelines.
A bacterial strain of Helicobacter pylori SS1 (CagA+, VacA+) is adapted for the mouse model from a human clinical isolate and validated in this infection model.
At 6 days prior to infection, a frozen stock is streaked onto one to two Columbia 5% sheep blood agar plates, and the plates are microaerophilically incubated for 72 hours at 37° C. After 72 hours, the plate growth is subcultured onto five Columbia 5% sheep blood agar plates and is incubated as before. After another 72 hours of incubation, the plates are removed, and the plate growth is suspended in sterile 0.9% saline to an OD of 1.5-2.0 at 530 nm. This OD is approximately equal to 1.0e+09 CFU/mL, which is used to orally infect the mice on all 3 infection days. To infect mice, the mice are orally dosed 0.25 mL of the 1.0e+09 CFU/mL via a 20-22 G gavage needle. Mice need to be fasted only before the first infection.
At 1 week post-infection, mice are treated with Nu-8. Multiple dose antibiotic therapies are administered orally at 0.2 mL/dose. Antibiotics are administered 2 times per day and continued for 7 days. The control group is administered the vehicle alone.
Food is removed from cages 18 hours prior to euthanizing animals and each cage is clearly labeled that the animals are being experimentally fasted. Mice are euthanized (CO2 & cervical dislocation). […] The excised stomach is placed into a sterile petri dish and the luminal contents are rinsed away with sterile 1×PBS. Each rinsed stomach is placed into a 14-mL Falcon tube containing 2 mL of 1×PBS and stored on ice. Each stomach is homogenized, 10-fold serial diluted in 1×PBS, spot plated onto Columbia agar with 3.5% laked horse blood±the DENT selective antibiotic supplement, and microaerophilically incubated for 5 days at 37° C. Then, colonies are counted.
Nu-8 is administered at various doses (mg/kg), orally, twice-a-day for 7 days. The formulations, concentration and dose volumes for treatment is established prior to dosing. The positive control group consists of a triple therapy regimen (omeprazole, amoxicillin, and clarithromycin). Negative control used dosing solution without drugs.

[4] = test system: Pseudomonas aeruginosa (ATCC27853); assay: Neutropenic lung infection model in mice, aerosol treatment (Example 23); format: in vivo, BALB/c mice; settings: for Mean ± SD (Log10 CFU/g lung) / Log10 CFU/g lung: 10% aerosol, 40 min, 24 h PI; for Log10 CFU/g lung: individual mice
Procedure: Neutropenic, BALB/c female mice, all of which were from 6 to 8 weeks of age, were infected intranasally with Pseudomonas aeruginosa (ATCC27853). Twenty-four hours post infection; animals were treated intra-nasally by nebulization with Nu-8 (10% nebulized for twenty minutes, twice). At two, four and six hours post treatment, animals were terminated; lung tissues were collected to determine the bacterial load.
The mice were separated into cohorts in accordance with Table 11.
On day −4 (four days before the date of infection), each mouse was dosed with a single intraperitoneal injection of cyclophosphamide equivalent to 150 mg/kg and returned to its cage. On day −1 (one day before infection) each mouse received a dose equivalent to 100 mg/kg of cyclophosphamide.
On day −1, an aliquot from glycerol stocks of P. aeruginosa (ATCC27853) was thawed, inoculated into fresh Casein Soybean Digest Broth (CSDB) and incubated overnight at 37 C.
On the day of infection (Day 0), the overnight culture was centrifuged and the cells were pelleted and resuspended in sterile normal saline to obtain approximately 10^9 CFU/ml P. aeruginosa, which was used for infection. The inoculum was serially diluted ten-fold in sterile CSDB broth and 0.05 ml of six dilutions was plated onto CSD Agar plates to determine the viable count (CFU/ml) of inoculum.
Animals were divided into different groups as specified in the experimental design (TABLE 11). Infections were conducted in a biological safety cabinet, with appropriate personnel protection. Mice were placed into an induction chamber and anesthesia was induced by exposing the animals to 3%-5% Isoflurane in an oxygen flow set at approximately 1 liter per minute (LPM). Once the animals were in a sufficiently deep plane of anesthesia, they were removed and infected. Infection was done by instilling 0.02 ml (containing ˜1×10^9 CFU/ml) intra-nasally. 10 μl was instilled into each nostril of the anesthetized animal (˜2×10^7 CFU/animal). A gentle shaking/mixing of inoculum between two animals was followed for uniform distribution.
The vehicle used for the test compound was saline (0.9% NaCl adjusted to pH 3.5 with citric acid). To make 10% solution, 15 g Nu-8 was weighed and dissolved in 145 ml of the saline and the pH of the solution was adjusted to 3.5 with citric acid (0.1 M) in a final volume of 150 ml.
Treatment was initiated twenty four hours post infection. Test formulations were administered by aerosol route with nose only apparatus connected to a nebulizer (Omron Ne-C28 Compressor Nebulizer with a volume capacity of 15 ml, Particle size 3 μm, nebulization rate: 0.5 ml/min, and Aerosol output rate: 0.09 ml/min. At the given aerosol output rate of 0.09 ml/min, a total of 6 animals at the port, each animal will receive 15 μl/min. In 40 min, a total of 60 mg in 600 μl will be delivered to each animal). The formulation prepared previously was placed into the nebulizer fluid cup; animals were placed in the nose only apparatus and the entire system was placed inside a Class II Biosafety Cabinet. Animals received nebulization for 20 min, followed by a 30-minute rest and then an additional 20-minute exposure at the same dose concentration (the flow rate and percentage of test material available at the inhalation port was 16% of the initial concentration in the nebulizer if the test compound is in solution).
Groups of animals were euthanized at 2, 4 and 6 hours post treatment, as specified in experimental design, by an overdose of CO2 in an appropriate exposure chamber.
The euthanized animals were dipped into 70% ethanol for surface decontamination. Lungs were aseptically excised, weighed, placed in a 2 ml centrifuge tube containing 1 ml of sterile CSDB broth, and homogenized (Omni Tip (220THB handheld)). Serial ten-fold dilutions of the lung homogenates were prepared in sterile CSDB broth and 0.05 ml of four dilutions for each lung was plated onto CSDA agar plates. […]

CCCCOP(=O)(O)OC[C@H]1O[C@@H](n2ccc(N)nc2=O)C[C@@H]1OP(=O)(O)OCCCC [Nu-8, sodium ((2R,3S,5R)-5-(4-amino-2-oxopyrimidin-1(2H)-yl)-3-((butoxyoxidophosphor-yl)oxy)tetrahydrofuran-2-yl)methyl butyl phosphate]
MIC [1]: 27 mg/mL | MIC [2]: 54 mg/mL | mean bacterial stomach titers of H. pylori SS1 (Log10) ([3]; 0.2 mg (1 mg/mL, 0.2 mL) PO bid for 7 days, +7 Days): 5.62 log10 CFU | mean bacterial stomach titers of H. pylori SS1 (Log10) ([3]; 0.2 mg (1 mg/mL, 0.2 mL) PO bid for 7 days, +14 Days): 6.2 log10 CFU | mean bacterial stomach titers of H. pylori SS1 (Log10) ([3]; 1.0 mg (5 mg/mL, 0.2 mL) PO bid for 7 days, +7 Days): 5.21 log10 CFU | mean bacterial stomach titers of H. pylori SS1 (Log10) ([3]; 1.0 mg (5 mg/mL, 0.2 mL) PO bid for 7 days, +14 Days): 5.67 log10 CFU | mean bacterial stomach titers of H. pylori SS1 (Log10) ([3]; 2 mg (10 mg/mL, 0.2 mL) PO bid for 7 days, +7 Days): 4.74 log10 CFU | mean bacterial stomach titers of H. pylori SS1 (Log10) ([3]; 2 mg (10 mg/mL, 0.2 mL) PO bid for 7 days, +14 Days): 5.81 log10 CFU | Mean ± SD (Log10 CFU/g lung) ([4]; 2 h post end of treatment): 4.92 ± 0.19 Log10 CFU/g lung | Log10 CFU/g lung ([4]; 2 h post end of treatment): 4.89 Log10 CFU/g lung and 4.76 Log10 CFU/g lung and 4.94 Log10 CFU/g lung and 4.98 Log10 CFU/g lung and 5.24 Log10 CFU/g lung and 4.70 Log10 CFU/g lung | Mean ± SD (Log10 CFU/g lung) ([4]; 4 h post end of treatment): 4.82 ± 0.26 Log10 CFU/g lung | Log10 CFU/g lung ([4]; 4 h post end of treatment): 4.51 Log10 CFU/g lung and 5.20 Log10 CFU/g lung and 5.02 Log10 CFU/g lung and 4.64 Log10 CFU/g lung (2×) and 4.88 Log10 CFU/g lung | Mean ± SD (Log10 CFU/g lung) ([4]; 6 h post end of treatment): 4.68 ± 0.26 Log10 CFU/g lung | Log10 CFU/g lung ([4]; 6 h post end of treatment): 4.58 Log10 CFU/g lung and 4.53 Log10 CFU/g lung and 5.16 Log10 CFU/g lung and 4.41 Log10 CFU/g lung and 4.60 Log10 CFU/g lung and 4.78 Log10 CFU/g lung | antibacterial activity vs vehicle control at 2 h and 4 h ([4]; 10%, 2, 4 and 6 hours post administration, p<0.05): significant antibacterial activity | animal condition during the study period ([4]; all groups): no abnormalities were detected

Source: patent publication US12030908B2, “Antimicrobial compounds, compositions, and uses thereof” (Lakewood Amedex, Inc., priority 2017, dated 2024)
